The values below come from patent US6858638B2, “Substituted indazoles, compositions containing them, method of production and use” (Aventis Pharma S.A., priority 2002, dated 2005).

Read-outs that look alike come from different tables or passages of the source.

Holding throughout (type): biochemical
In assay [1] the target is T1, human KDR enzyme (Homo sapiens, UniProt P35968).
T1 construct: The cytoplasmic domain of the human KDR enzyme; GST; made in house; host or cells: SF21 insect cells (baculovirus)
T1 sequence (P35968 786-1356 limits assumed): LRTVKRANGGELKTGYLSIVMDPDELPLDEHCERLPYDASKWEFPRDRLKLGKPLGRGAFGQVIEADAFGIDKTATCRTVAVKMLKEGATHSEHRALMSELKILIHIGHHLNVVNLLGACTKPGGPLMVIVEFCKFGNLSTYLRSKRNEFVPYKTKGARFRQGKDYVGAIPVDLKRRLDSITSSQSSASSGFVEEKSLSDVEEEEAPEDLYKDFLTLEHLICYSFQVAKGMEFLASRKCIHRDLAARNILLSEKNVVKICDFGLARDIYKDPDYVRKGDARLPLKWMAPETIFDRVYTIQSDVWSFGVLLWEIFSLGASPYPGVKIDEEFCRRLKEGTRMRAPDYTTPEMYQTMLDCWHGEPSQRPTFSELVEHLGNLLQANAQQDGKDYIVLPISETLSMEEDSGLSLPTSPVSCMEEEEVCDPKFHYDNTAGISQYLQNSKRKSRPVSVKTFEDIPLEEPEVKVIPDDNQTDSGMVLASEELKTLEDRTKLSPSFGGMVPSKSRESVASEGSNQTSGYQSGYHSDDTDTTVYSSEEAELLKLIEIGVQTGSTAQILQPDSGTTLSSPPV
In words: KDR substrate (PLCγ) phosphorylation, scintillation assay. As to conditions: read-out: KDR % inhib at 10 μM. An outline of the steps:
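Values are percent inhibition relative to the compound-free control, read by scintillation counting of 33P incorporation after EDTA stop. Baculovirus/SF21-expressed GST-KDR cytoplasmic domain (100 ng) acted for 1 h at 37 °C in pH 7.2 MOPS kinase buffer. The substrate was GST-PLCγ SH2-SH3 (2 μg), added with γ33P-ATP and 2 μM unlabeled ATP.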

Assay [2] addresses T2, human FAK (Homo sapiens, UniProt Q05397).
T2 construct: The complete cDNA of human FAK; made in house; host or cells: baculovirus expression system (vector pFastBac HTc)
Kind of assay: FAK autophosphorylation inhibition, time resolved fluorescence (HTRF) assay. The settings on record: 10 μM (values without asterisk); read-out: FAK % inhib at 10 μM. An outline of the steps:
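Autophosphorylation was detected by europium-cryptate anti-pTyr and XL665 anti-His energy transfer, percent inhibition from the 665/620 ratio relative to no-compound wells. Enzyme: His-FAK full length, 6.6 µg/ml, incubated 1 h at 37 °C, pH 7.2, 15 µM ATP.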
For orientation: TR-FRET usually uses a lanthanide donor and a delayed reading to cut background.

For assay [3], the target named is T3, Aurora2 kinase (Homo sapiens, UniProt O14965).
T3 construct: A complete recombinant Aurora2 enzyme; His tag (N); made in house; host or cells: E. coli
T3 sequence (O14965 1-403): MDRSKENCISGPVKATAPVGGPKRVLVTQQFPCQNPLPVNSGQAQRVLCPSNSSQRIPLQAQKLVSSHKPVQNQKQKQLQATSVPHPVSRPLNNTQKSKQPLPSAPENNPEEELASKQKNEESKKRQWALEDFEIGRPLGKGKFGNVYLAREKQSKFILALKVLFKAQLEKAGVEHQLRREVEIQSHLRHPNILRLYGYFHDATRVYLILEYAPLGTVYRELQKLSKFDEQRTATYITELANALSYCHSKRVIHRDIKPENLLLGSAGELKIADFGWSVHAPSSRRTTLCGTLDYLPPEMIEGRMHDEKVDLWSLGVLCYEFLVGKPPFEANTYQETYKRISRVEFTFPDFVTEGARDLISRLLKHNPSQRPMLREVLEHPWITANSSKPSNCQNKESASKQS
In words: Aurora2 kinase radioactivity scintillation assay using nickel chelate (NuMA substrate). As to conditions: read-out: Aurora2 % inhib at 10 μM. An outline of the steps: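 Read-out is 33P incorporation into His-NuMA (Q1687-H2101, 0.5 μM) captured on nickel chelate, after 30 min at 37 °C with 0.02 μM His-Aurora2 and 1 μM ATP. Expressed as percentage inhibition of uncompounded control activity, background subtracted.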

Assay [4] concerns the target T4, human IGF1R cytoplasmic domain (Homo sapiens, UniProt P08069).
T4 construct: The human IGF1R cytoplasmic domain was cloned; made in house; host or cells: SF21 insect cells (baculovirus)
In words: IGF1R autophosphorylation inhibition, time resolved fluorescence (HTRF) assay. As to conditions: read-out: IGF1R % inhib at 10 μM. The protocol:
The inhibitory activity of the compounds on IGF1R is determined by measuring the inhibition of the autophosphorylation of the enzyme using a time resolved fluorescence (HTRF) assay.
The human IGF1R cytoplasmic domain was cloned, as a fusion with glutathione S-transferase (GST), into the baculovirus expression vector pFastBac-GST. The protein was expressed in SF21 cells and purified to approximately 80% homogeneity.
The kinase activity was determined by incubating the enzyme with various concentrations of test compound in a 50 mM Hepes buffer, pH 7.5, containing 5 mM MnCl2, 50 mM NaCl, 3% glycerol, 0.025% Tween […] of ATP. The enzyme reaction is stopped by adding 100 mM Hepes buffer, pH 7.0, containing 0.4 M KF, 133 mM EDTA and 0.1% BSA containing an anti-GST antibody labeled with XL665 and an antiphosphotyrosine antibody conjugated to europium cryptate (Eu-K). The characteristics of the two fluorophores, XL-665 and Eu-K, are available in G. Mathis et al., Anticancer Research, 1997, 17, pages 3011-3014. The transfer of energy from the excited europium cryptate to the acceptor XL665 is proportional to the degree of autophosphorylation of IGF1R. The long-lived signal specific for XL-665 is measured in a Victor analyzer plate counter (Perkin-elmer). The inhibition of the IGF1R autophosphorylation activity with compounds of the invention is expressed as percentage inhibition compared to a control whose activity is measured in the absence of test compound.

T4 sequence (P08069 960-1367 limits assumed): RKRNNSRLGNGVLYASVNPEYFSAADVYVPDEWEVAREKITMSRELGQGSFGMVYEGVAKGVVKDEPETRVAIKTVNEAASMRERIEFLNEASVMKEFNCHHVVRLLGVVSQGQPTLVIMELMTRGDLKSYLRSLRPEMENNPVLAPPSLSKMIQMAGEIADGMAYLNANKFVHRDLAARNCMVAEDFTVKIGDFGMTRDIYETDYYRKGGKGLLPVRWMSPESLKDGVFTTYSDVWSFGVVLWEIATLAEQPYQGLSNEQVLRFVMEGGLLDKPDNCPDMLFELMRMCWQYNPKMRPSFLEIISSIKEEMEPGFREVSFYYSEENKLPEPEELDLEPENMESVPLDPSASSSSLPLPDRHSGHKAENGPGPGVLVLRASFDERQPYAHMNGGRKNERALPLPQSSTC
T2 sequence (Q05397 whole entry): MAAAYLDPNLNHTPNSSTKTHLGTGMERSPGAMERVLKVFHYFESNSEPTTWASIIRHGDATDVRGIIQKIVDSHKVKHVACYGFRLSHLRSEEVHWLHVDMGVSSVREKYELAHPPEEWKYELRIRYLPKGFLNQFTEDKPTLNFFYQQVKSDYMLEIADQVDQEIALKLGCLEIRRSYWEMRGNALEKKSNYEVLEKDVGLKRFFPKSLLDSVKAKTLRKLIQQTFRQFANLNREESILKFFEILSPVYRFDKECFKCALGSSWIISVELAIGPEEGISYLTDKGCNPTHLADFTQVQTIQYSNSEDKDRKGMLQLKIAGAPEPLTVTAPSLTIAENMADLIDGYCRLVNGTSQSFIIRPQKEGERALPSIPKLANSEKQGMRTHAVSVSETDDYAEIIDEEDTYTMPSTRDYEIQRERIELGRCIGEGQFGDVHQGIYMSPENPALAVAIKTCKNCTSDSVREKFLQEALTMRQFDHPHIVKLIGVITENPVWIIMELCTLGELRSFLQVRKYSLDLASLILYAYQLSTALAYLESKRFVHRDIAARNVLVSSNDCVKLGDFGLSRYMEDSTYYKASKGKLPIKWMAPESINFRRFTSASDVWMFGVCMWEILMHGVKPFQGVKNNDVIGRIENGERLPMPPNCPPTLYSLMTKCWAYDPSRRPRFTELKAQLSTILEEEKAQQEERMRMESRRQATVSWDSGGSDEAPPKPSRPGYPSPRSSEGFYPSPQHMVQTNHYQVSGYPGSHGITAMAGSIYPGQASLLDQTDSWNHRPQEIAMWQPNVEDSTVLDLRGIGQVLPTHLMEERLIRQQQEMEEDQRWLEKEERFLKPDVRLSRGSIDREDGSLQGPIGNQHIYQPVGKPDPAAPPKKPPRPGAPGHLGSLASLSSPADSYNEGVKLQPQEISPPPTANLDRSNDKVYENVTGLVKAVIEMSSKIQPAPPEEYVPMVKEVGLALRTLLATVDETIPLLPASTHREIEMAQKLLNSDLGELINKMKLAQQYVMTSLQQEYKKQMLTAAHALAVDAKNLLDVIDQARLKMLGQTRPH

As for `O=S(=O)(Nc1ccc2[nH]nc(-c3cc4ccccc4[nH]3)c2c1)c1cccc(F)c1` [Example 85, 3-Fluoro-N-[3-(1H-indol-2-yl)-1H-indazol-5-yl]benzenesulfonamide], the inhibition at 10 µM was 99% in assay [1] (10 μM), 95% in assay [2], 100% in assay [3] (10 μM) and 99% in assay [4] (10 μM).
As for `CN(C)c1c(F)c(F)c(S(=O)(=O)Nc2ccc3[nH]nc(-c4cc5ccccc5[nH]4)c3c2)c(F)c1F` [Example 86, 4-Dimethylamino-2,3,5,6-tetrafluoro-N-[3-(1H-indol-2-yl)-1H-indazol-5-yl]benzenesulfonamide], the inhibition at 10 µM in assay [1] (10 μM) came out at 85%; in assay [2], 40%; in assay [3] (10 μM) it was 86%; in assay [4] (10 μM), 53%.
As for `C[Si](C)(C)C#Cc1cccc(-c2n[nH]c3ccc(NS(=O)(=O)c4ccccc4S(C)(=O)=O)cc23)c1` [Example 91, 2-Methylsulfonyl-N-[3-(3-trimethylsilanylethynylphenyl)-1H-indazol-5-yl]benzenesulfonamide], the inhibition at 10 µM in assay [1] stood at 35%; in assay [2] it was 95%; in assay [3], 11%; in assay [4], 7%.
For the compound `CS(=O)(=O)c1ccccc1S(=O)(=O)Nc1ccc2[nH]nc(-c3cc(C(F)(F)F)cc(C(F)(F)F)c3)c2c1` [Example 101, N-[3-(3,5-bistrifluoromethylphenyl)-1H-indazol-5-yl]-2-methylsulfonylbenzenesulfonamide], the inhibition at 10 µM turned out to be 39% in assay [1] (10 μM), 84% in assay [2], 30% in assay [3] (10 μM) and 28% in assay [4] (10 μM).
The corresponding values for `CS(=O)(=O)c1ccccc1S(=O)(=O)Nc1ccc2[nH]nc(-c3cc(F)cc(F)c3)c2c1` [Example 102, N-[3-(3,5-difluorophenyl)-1H-indazol-5-yl]-2-methylsulfonylbenzenesulfonamide] are 77%, 90%, 96% and 74%.
In the case of `CSc1ccccc1-c1n[nH]c2ccc(NS(=O)(=O)c3ccccc3S(C)(=O)=O)cc12` [Example 103, 2-methylsulfonyl-N-[3-(2-methylsulfanylphenyl)-1H-indazol-5-yl]benzenesulfonamide], the inhibition at 10 µM in assay [1] (10 μM) worked out at 25%; in assay [2], 61%; in assay [3] (10 μM), 40%; in assay [4] (10 μM), 19%.
`CS(=O)(=O)c1ccccc1S(=O)(=O)Nc1ccc2[nH]nc(-c3ccc4[nH]ccc4c3)c2c1` [Example 104, N-[3-(1H-indol-5-yl)-1H-indazol-5-yl]-2-methylsulfonylbenzenesulfonamide]: the inhibition at 10 µM in assay [1] (10 μM) is 75%; in assay [2] it was 85%; in assay [3] (10 μM) it was 97%; in assay [4] (10 μM) it was 73%.
The matching figures for `Cc1ccccc1-c1n[nH]c2ccc(NS(=O)(=O)c3ccccc3S(C)(=O)=O)cc12` [Example 105, 2-Methylsulfonyl-N-(3-o-tolyl-1H-indazol-5-yl)benzenesulfonamide]: 28%, 71%, 49% and 25%.
The matching figures for `O=S(=O)(Nc1ccc2[nH]nc(-c3ccccc3)c2c1)c1cccc2ccccc12` [Example 106, N-(3-Phenyl-1H-indazol-5-yl)-naphthalene-1-sulfonamide]: 79%, 43%, 92% and 90%.
The corresponding values for `CN(C)c1cccc2c(S(=O)(=O)Nc3ccc4[nH]nc(-c5ccccc5)c4c3)cccc12` [Example 107, 5-Dimethylamino-N-(3-phenyl-1H-indazol-5-yl)naphthalene-1-sulfonamide] are 51%, 10%, 43% and 84%.
For `O=S(=O)(Nc1ccc2[nH]nc(-c3ccccc3)c2c1)c1ccc2ccccc2c1` [Example 108, N-(3-Phenyl-1H-indazol-5-yl)-naphthalene-2-sulfonamide], the inhibition at 10 µM came out at 72% in assay [1] (10 μM), 8% in assay [2], 44% in assay [3] (10 μM) and 78% in assay [4] (10 μM).
As for `O=S(=O)(Nc1ccc2[nH]nc(-c3ccccc3)c2c1)c1cccc2cccnc12` [Example 111, N-(3-Phenyl-1H-indazol-5-yl)quinoline-8-sulfonamide], the inhibition at 10 µM in assay [1] (10 μM) amounted to 83%; in assay [2], 66%; in assay [3] (10 μM), 100%; in assay [4] (10 μM), 99%.
The matching figures for `CC(C)c1cc(C(C)C)c(S(=O)(=O)Nc2ccc3[nH]nc(-c4ccccc4)c3c2)c(C(C)C)c1` [Example 114, 2,4,6-Triisopropyl-N-(3-phenyl-1H-indazol-5-yl)-benzenesulfonamide]: 90%, 48%, 98% and 50%.
`Cc1cc(C)c(S(=O)(=O)Nc2ccc3[nH]nc(-c4ccccc4)c3c2)c(C)c1` [Example 115, 2,4,6-Trimethyl-N-(3-phenyl-1H-indazol-5-yl)-benzenesulfonamide]: the inhibition at 10 µM turned out to be 78% in assay [1] (10 μM), 31% in assay [2], 70% in assay [3] (10 μM) and 79% in assay [4] (10 μM).
The matching figures for `O=[N+]([O-])c1ccc(S(=O)(=O)Nc2ccc3[nH]nc(-c4ccccc4)c3c2)cc1` [Example 119, 4-Nitro-N-(3-phenyl-1H-indazol-5-yl)benzenesulfonamide]: 78%, 25%, 50% and 50%.
On to `CCCCS(=O)(=O)Nc1ccc2[nH]nc(-c3ccccc3)c2c1` [Example 129, N-(3-Phenyl-1H-indazol-5-yl)-butanesulfonamide], for which the inhibition at 10 µM in assay [1] (10 μM) amounted to 58%; in assay [2], 46%; in assay [3] (10 μM) it was 64%; in assay [4] (10 μM) it was 30%.
For `O=C(NCc1ccc(S(=O)(=O)Nc2ccc3[nH]nc(-c4ccccc4)c3c2)s1)c1ccccc1` [Example 140, N-[5-(3-Phenyl-1H-indazol-5-ylsulfamoyl)thiophen-2-ylmethyl]benzamide], the inhibition at 10 µM in assay [1] (10 μM) was determined as 70%; in assay [2] it was 6%; in assay [3] (10 μM) it was 71%; in assay [4] (10 μM), 40%.
For `O=S(=O)(Nc1ccc2[nH]nc(-c3ccccc3)c2c1)c1ccccc1OC(F)(F)F` [Example 142, N-(3-Phenyl-1H-indazol-5-yl)-2-trifluoromethoxy-benzenesulfonamide], the inhibition at 10 µM in assay [1] (10 μM) was 85%; in assay [2], 40%; in assay [3] (10 μM), 100%; in assay [4] (10 μM), 74%.
